In this test the test system is human patients with Type 3 SMA. Put plainly: Four-week spinal cord stimulation (SCS) trial in SMA patients with or without concurrent SMA therapy (Nusinersen), with long-term follow-up. In kind it is in vivo. The text has this: This example describes a particular method that can be used to treat SMA in a patient by applying a therapeutically effective amount of an electrical stimulus to the dorsolateral aspect of the spinal cord containing sensory neurons innervating a body region of the patient with motor impairment due to SMA. Although particular methods and protocols are provided, one skilled in the art will appreciate that variations can be made without substantially affecting the treatment. Three patients with SMA were identified and participated in this spinal cord stimulation trial. […]
Three human patients with Type 3 SMA that show quantifiable motor deficits of the legs are selected for treatment. […]
This example aims to measure immediate, end-of-study, and long-term effects of SCS on SMA including various clinical outcomes. […] As used herein, “immediate” refers to effects measured during the four-week study and relates to the usage of SCS. […] As used herein, “end-of-study” refers to effects measured within about 1 week before or after the end of the four-week study, around the time that the SCS electrodes are removed. […] In particular, as used herein, “long-term” refers to effects measured 50+ days after the electrodes are removed and relates to changes in motor ability over time without the continuous application of SCS. […]

This is an account of results in patent publication US20260043028A1, “TREATMENT OF SPINAL MUSCULAR ATROPHY” (University of Pittsburgh - Of the Commonwealth System of …, priority 2023, published 2026).

For the substance Nusinersen, the “results throughout the course of the four-week experiment, compared with the patient not treated with an SMA therapy” value (SMA02 and SMA03 (Nusinersen plus SCS) vs SMA01 (SCS only), during the four-week experiment) was “did not exhibit substantially better results”. Moreover, the “long-term course of the beneficial effects of SCS” value (SMA02 and SMA03 on SMA therapy during SCS, long-term follow-up (50+ days after explant), SMA01 without therapy showed long-term degradation) is given as “long-term stability in the beneficial effects of SCS”.
